Results from ChEMBL document CHEMBL5316313, “Discovery of Novel 3-Phenylpiperidine Derivatives Targeting the β-Catenin/B-Cell Lymphoma 9 Interaction as a Single Agent and in Combination with the Anti-PD-1 Antibody for the Treatment of Colorectal Cancer” (J Med Chem, 2023).
Calls of active or inactive are those of the source. The rule behind the calls is not given here.

Columns and labels:
[1] = tested on: CT26; conditions: Mus musculus, BALB/c, dose 30.0 mg/kg, route ip
Description: In vivo inhibition of Wnt signaling pathway in mouse CT26 cells implanted in BALB/c mouse assessed as reduction in Lgr5 mRNA expression level in tumor at 30 mg/kg, ip QD by qRT-PCR analysis

[2] = tested on: HEK293; experiment: Induction of apoptosis in Wnt-independent human HEK293 cells assessed as late apoptotic cells at 20 uM incubated for 24 hrs by Annexin V-Alexa Fluor 647/PI staining based flow cytomtery (Rvb=10.5%); assay type: functional
[3] = tested on: CT26; experiment: Synergistic antitumor activity in mouse CT26 cells xenografted in BALB/c mouse assessed as increase in GZMB mRNA expression level in tumor at 30 mg/kg, ip QD in presence of anti-PD-1 antibody cotreatment at 10 mg/kg,ip BIW by qRT-PCR analysis; assay type: functional, organism-based
[4] = tested on: CT26; experiment: Synergistic antitumor activity in mouse CT26 cells xenografted in BALB/c mouse assessed as increase in Cd8 mRNA expression level in tumor at 30 mg/kg, ip QD in presence of anti-PD-1 antibody cotreatment at 10 mg/kg,ip BIW by qRT-PCR analysis; assay type: functional, organism-based
[5] = tested on: HCT-116; experiment: Induction of apoptosis in Wnt-dependent human HCT-116 cells assessed as late apoptotic cells at 20 uM incubated for 24 hrs by Annexin V-Alexa Fluor 647/PI staining based flow cytomtery (Rvb=14.7%); assay type: functional
[6] = tested on: CT26; experiment: Synergistic antitumor activity in mouse CT26 cells xenografted in BALB/c mouse assessed as increase in CD8+ T cell infiltration into tumor at 30 mg/kg, ip QD in presence of anti-PD-1 antibody cotreatment at 10 mg/kg,ip BIW by flow cytometry; assay type: functional, organism-based
[7] = tested on: CT26; experiment: Antiproliferative activity against Wnt-dependent mouse CT26 cells assessed as cell growth inhibition incubated for 48 hrs by CellTiter-Glo assay; assay type: functional, cell-based
[8] = tested on: CT26; experiment: Synergistic antitumor activity in mouse CT26 cells xenografted in BALB/c mouse assessed as increase in IFNG mRNA expression level in tumor at 30 mg/kg, ip QD in presence of anti-PD-1 antibody cotreatment at 10 mg/kg,ip BIW by qRT-PCR analysis; assay type: functional, organism-based
[9] = Toxicity in BALB/c mouse xenografted with mouse CT26 cells assessed as body weight loss at 30 mg/kg, ip QD and measured upto 9 days in presence of anti-PD-1 antibody cotreatment at 10 mg/kg,ip BIW; assay type: organism-based; conditions: in vivo, 216 h, time < 9 day
[10] = Toxicity in BALB/c mouse xenografted with mouse CT26 cells assessed as pathological changes in heart at 30 mg/kg, ip QD by hematoxylin and eosin staining based microscopic analysis; assay type: organism-based; conditions: in vivo
[11] = tested on: HCT-116; experiment: Induction of apoptosis in Wnt-dependent human HCT-116 cells assessed as late apoptotic cells at 10 uM incubated for 24 hrs by Annexin V-Alexa Fluor 647/PI staining based flow cytomtery (Rvb=14.7%); assay type: functional
[12] = tested on: HCT-116; experiment: Induction of apoptosis in Wnt-dependent human HCT-116 cells assessed as early apoptotic cells at 20 uM incubated for 24 hrs by Annexin V-Alexa Fluor 647/PI staining based flow cytomtery (Rvb=14.3%); assay type: functional
[13] = tested on: CT26; experiment: Antitumor activity in mouse CT26 cells xenografted in BALB/c mouse assessed as increase in GZMB mRNA expression level in tumor at 30 mg/kg, ip QD by qRT-PCR analysis; assay type: functional, organism-based
[14] = AUC (0 to infinity) in Sprague-Dawley rat at 21 mg/kg, ip and measured upto 24 hrs by LC-MS analysis; assay type: ADME, organism-based; design: time < 24 hrs, dose 21 mg/kg, route ip; conditions: in vivo
[15] = tested on: CT26; experiment: Antitumor activity in mouse CT26 cells xenografted in BALB/c mouse assessed as increase in IFNG mRNA expression level in tumor at 30 mg/kg, ip QD by qRT-PCR analysis; assay type: functional, organism-based
[16] = Microsomal stability in mouse liver microsomes assessed as intrinsic clearance at […] and measured upto 60 mins by LC-MS/MS analysis; assay type: ADME, Microsome; conditions: read-out: CLH
[17] = tested on: CT26; experiment: Synergistic antitumor activity in mouse CT26 cells xenografted in BALB/c mouse assessed as decrease in Foxp3 expression in Treg tumor cells at 30 mg/kg, ip QD in presence of anti-PD-1 antibody cotreatment at 10 mg/kg,ip BIW by qRT-PCR analysis; assay type: functional, organism-based
[18] = tested on: RKO; experiment: Antiproliferative activity against Wnt-independent human RKO cells assessed as cell growth inhibition at 40 uM incubated for 48 hrs by CellTiter-Glo assay; assay type: functional, cell-based
[19] = Toxicity in BALB/c mouse xenografted with mouse CT26 cells assessed as pathological changes in liver at 30 mg/kg, ip QD by hematoxylin and eosin staining based microscopic analysis; assay type: organism-based; conditions: in vivo
[20] = tested on: HCT-116; experiment: Induction of apoptosis in Wnt-dependent human HCT-116 cells assessed as early apoptotic cells at 10 uM incubated for 24 hrs by Annexin V-Alexa Fluor 647/PI staining based flow cytomtery (Rvb=14.3%); assay type: functional
[21] = tested on: HEK293; experiment: Antiproliferative activity against Wnt-independent human HEK293 cells assessed as cell growth inhibition at 40 uM incubated for 48 hrs by CellTiter-Glo assay; assay type: functional, cell-based
[22] = tested on: CT26; experiment: Antitumor activity in mouse CT26 cells xenografted in BALB/c mouse assessed as increase in CD8+ T cell infiltration into tumor at 30 mg/kg, ip QD by flow cytometry; assay type: functional, organism-based
[23] = Toxicity in BALB/c mouse xenografted with mouse CT26 cells assessed as adverse effect at 30 mg/kg, ip QD and measured upto 9 days in presence of anti-PD-1 antibody cotreatment at 10 mg/kg,ip BIW; assay type: organism-based; conditions: in vivo, 216 h, time < 9 day
[24] = tested on: CT26; experiment: Antitumor activity against mouse CT26 cells xenografted in BALB/c mouse assessed as tumor growth inhibition at 30 mg/kg, ip QD and measured upto 9 days in presence of anti-PD-1 antibody cotreatment at 10 mg/kg,ip BIW; assay type: functional; conditions: CT26, 216 h, time <= 9 day, read-out: TGI
[25] = tested on: HEK293; experiment: Induction of apoptosis in Wnt-independent human HEK293 cells assessed as necrotic cells at 20 uM incubated for 24 hrs by Annexin V-Alexa Fluor 647/PI staining based flow cytomtery (Rvb=1.82%); assay type: functional
[26] = tested on: CT26; experiment: Antitumor activity in mouse CT26 cells xenografted in BALB/c mouse assessed as increase in Cd8 mRNA expression level in tumor at 30 mg/kg, ip QD by qRT-PCR analysis; assay type: functional, organism-based
[27] = tested on: CT26; conditions: Mus musculus, BALB/c, dose 30.0 mg/kg, route ip; remark: listed apart in the source
Description: In vivo inhibition of Wnt signaling pathway in mouse CT26 cells implanted in BALB/c mouse assessed as reduction in Axin2 mRNA expression level in tumor at 30 mg/kg, ip QD by qRT-PCR analysis

[28] = Cmax in Sprague-Dawley rat at 21 mg/kg, ip and measured upto 24 hrs by LC-MS analysis; assay type: ADME, organism-based; design: dose 21 mg/kg, time < 24 hrs, route ip; conditions: in vivo
[29] = tested on: HEK293; experiment: Induction of apoptosis in Wnt-independent human HEK293 cells assessed as early apoptotic cells at 10 uM incubated for 24 hrs by Annexin V-Alexa Fluor 647/PI staining based flow cytomtery (Rvb=17.4%); assay type: functional
[30] = tested on: CT26; experiment: Induction of apoptosis in Wnt-dependent mouse CT26 cells assessed as viable cells at 20 uM incubated for 24 hrs by Annexin V-Alexa Fluor 647/PI staining based flow cytomtery (Rvb=70.7%); assay type: functional; conditions: read-out: Activity
[31] = Toxicity in BALB/c mouse xenografted with mouse CT26 cells assessed as pathological changes in liver at 30 mg/kg, ip QD in presence of anti-PD-1 antibody cotreatment at 10 mg/kg,ip BIW by hematoxylin and eosin staining based microscopic analysis; assay type: organism-based; conditions: in vivo

For `CC(C)c1ccc(-c2cccc(S(=O)(=O)N3CCCC(c4cccc(OC(C)(C)C(=O)NS(=O)(=O)c5ccc(C(F)(F)F)cc5)c4)C3)c2)cc1` (stereo unspecified), the inhibition [1] was “Active”, the Activity [2] was 16.6% and the Activity [3] was “Active”. For the same compound, the Activity [4] was “Active”, the Activity [5] was 33.1% and the Activity [6] was “Active”. For the same compound, the Activity [7] was “Active”, the Activity [8] was “Active” and the Activity [9] was “Non-Toxic”. For the same compound, the Activity [10] was “Non-Toxic”, the Activity [11] was 21.5% and the Activity [12] was 26.4%. The Activity [13] was “Active”, the AUC(0-inf) [14] was 17400 ng·h/mL and the Activity [15] was “Active”. The microsomal CLint [16] was 66.2 µL/min/mg, the Activity [17] was “Active” and the Activity [18] was “inactive”. The Activity [19] was “Non-Toxic”, the Activity [20] was 16.7% and the Activity [21] was “inactive”. For the same compound, the Activity [22] was “Active”, the Activity [23] was “Non-Toxic” and the inhibition in vivo at 30 mg/kg [24] was 81.1%. The Activity [25] was 1.69%, the Activity [26] was “Active” and the inhibition [27] was “Active”. For the same compound, the Cmax [28] was 6960 ng/mL, the Activity [29] was 12.1% and the viability at 20 µM [30] was 16%. The Activity [31] was “Non-Toxic”.
